Tests used:
Assay in all cases: Post-emergence efficacy, glasshouse spray test
Format in all cases: in vivo
Setaria faberi (SETFA) = conditions: Setaria faberi, post-emergence, 312 h, evaluated after 13 days, read-out: Control of weed species SETFA after post-emergence application (100=total damage to plant; 0=no damage to plant); for pest or weed control at 1000 g/ha: application rate 1000 g/Ha; for pest or weed control at 500 g/ha: application rate 500 g/Ha
Description: (§1) Seeds of a variety of test species were sown in standard soil in pots. After cultivation for 14 days (post-emergence) under controlled conditions in a glasshouse (at 24/16° C., day/night; 14 hours light; 65% humidity), the plants were sprayed with an aqueous spray solution derived from the dissolution of the technical active ingredient formula (I) in a small amount of acetone and a special solvent and emulsifier mixture referred to as IF50 (11.12% Emulsogen EL360 TM+44.44% N-methylpyrrolidone+44.44% Dowanol DPM glycol ether), to create a 50 g/l solution which was then diluted to required concentration using 0.25% or 1% Empicol ESC70 (Sodium lauryl ether sulphate)+1% ammonium sulphate as diluent. The test plants were then grown in a glasshouse under controlled conditions (at 24/16° C., day/night; 14 hours light; 65% humidity) and watered twice daily. After 13 days the test was evaluated (100=total damage to plant; 0=no damage to plant).
(§2) Ipomoea hederacea (IPOHE), Euphorbia heterophylla (EPHHL), Chenopodium album (CHEAL), Amaranthus palmeri (AMAPA), Lolium perenne (LOLPE), Digitaria sanguinalis (DIGSA), Eleusine indica (ELEIN), Echinochloa crus-galli (ECHCG), Setaria faberi (SETFA)

Eleusine indica (ELEIN) = conditions: Eleusine indica, post-emergence, 312 h, evaluated after 13 days, read-out: Control of weed species ELEIN after post-emergence application (100=total damage to plant; 0=no damage to plant); for pest or weed control at 1000 g/ha: application rate 1000 g/Ha; for pest or weed control at 500 g/ha: application rate 500 g/Ha
Description: as §1, §2

Lolium perenne (LOLPE) = conditions: Lolium perenne, post-emergence, 312 h, evaluated after 13 days, read-out: Control of weed species LOLPE after post-emergence application (100=total damage to plant; 0=no damage to plant); for pest or weed control at 1000 g/ha: application rate 1000 g/Ha; for pest or weed control at 500 g/ha: application rate 500 g/Ha
Description: as §1, §2

[1] = system: Chenopodium album (CHEAL); conditions: Chenopodium album, post-emergence, 312 h, evaluated after 13 days, read-out: Control of weed species CHEAL after post-emergence application (100=total damage to plant; 0=no damage to plant); for pest or weed control at 1000 g/ha: application rate 1000 g/Ha; for pest or weed control at 500 g/ha: application rate 500 g/Ha
Description: as §1, §2

[2] = system: Amaranthus palmeri (AMAPA); conditions: Amaranthus palmeri, post-emergence, 312 h, evaluated after 13 days, read-out: Control of weed species AMAPA after post-emergence application (100=total damage to plant; 0=no damage to plant); for pest or weed control at 1000 g/ha: application rate 1000 g/Ha; for pest or weed control at 500 g/ha: application rate 500 g/Ha
Description: as §1, §2

[3] = system: Euphorbia heterophylla (EPHHL); conditions: Euphorbia heterophylla, post-emergence, 312 h, evaluated after 13 days, read-out: Control of weed species EPHHL after post-emergence application (100=total damage to plant; 0=no damage to plant); for pest or weed control at 1000 g/ha: application rate 1000 g/Ha; for pest or weed control at 500 g/ha: application rate 500 g/Ha
Description: as §1, §2

[4] = system: Digitaria sanguinalis (DIGSA); conditions: Digitaria sanguinalis, post-emergence, 312 h, evaluated after 13 days, read-out: Control of weed species DIGSA after post-emergence application (100=total damage to plant; 0=no damage to plant); for pest or weed control at 1000 g/ha: application rate 1000 g/Ha; for pest or weed control at 500 g/ha: application rate 500 g/Ha
Description: as §1, §2

[5] = system: Echinochloa crus-galli (ECHCG); conditions: Echinochloa crus-galli, post-emergence, 312 h, evaluated after 13 days, read-out: Control of weed species ECHCG after post-emergence application (100=total damage to plant; 0=no damage to plant); for pest or weed control at 1000 g/ha: application rate 1000 g/Ha; for pest or weed control at 500 g/ha: application rate 500 g/Ha
Description: as §1, §2

[6] = system: Ipomoea hederacea (IPOHE); conditions: Ipomoea hederacea, post-emergence, 312 h, evaluated after 13 days, read-out: Control of weed species IPOHE after post-emergence application (100=total damage to plant; 0=no damage to plant); for pest or weed control at 1000 g/ha: application rate 1000 g/Ha; for pest or weed control at 500 g/ha: application rate 500 g/Ha
Description: as §1, §2

Row | Compound | pest or weed control at 1000 g/ha (Setaria faberi (SETFA)) | pest or weed control at 1000 g/ha (Eleusine indica (ELEIN)) | pest or weed control at 1000 g/ha (Lolium perenne (LOLPE)) | pest or weed control at 1000 g/ha [1] | pest or weed control at 1000 g/ha [2] | pest or weed control at 1000 g/ha [3] | pest or weed control at 1000 g/ha [4] | pest or weed control at 1000 g/ha [5] | pest or weed control at 1000 g/ha [6] | pest or weed control at 500 g/ha (Setaria faberi (SETFA)) | pest or weed control at 500 g/ha (Eleusine indica (ELEIN)) | pest or weed control at 500 g/ha (Lolium perenne (LOLPE)) | pest or weed control at 500 g/ha [1] | pest or weed control at 500 g/ha [2] | pest or weed control at 500 g/ha [3] | pest or weed control at 500 g/ha [4] | pest or weed control at 500 g/ha [5] | pest or weed control at 500 g/ha [6]
1 | COC(=O)C[n+]1cc(C)c2cc(C)ccc2n1 [Compound A9] | 10% | 70% | 10% | 60% | 10% | 50% | 40% | 10% | 20% |  |  |  |  |  |  |  |  | 
2 | Cc1ccc2n[n+](CC(=O)[O-])cc(C)c2c1 [Compound A10] | 40% | 70% | 10% | 30% | 30% | 40% | 50% | 40% | 40% |  |  |  |  |  |  |  |  | 
3 | Cc1c[n+](CCS(=O)(=O)[O-])nc2ccccc12 [Compound A11] | 70% | 80% | 0% | 100% | 100% | 80% | 40% | 60% | 80% |  |  |  |  |  |  |  |  | 
4 | N[C@H](CC[n+]1ccc2ccccc2n1)C(=O)O [Compound A12, [(1R)-1-carboxy-3-cinnolin-2-ium-2-yl-propyl]ammonium 2,2,2-trifluoroacetate] | 50% | 90% | 40% | 70% | 80% | 50% | 80% | 40% | 60% |  |  |  |  |  |  |  |  | 
5 | CNC(=O)c1c[n+](CCS(=O)(=O)[O-])nc2ccccc12 [Compound A13] |  |  |  |  |  |  |  |  |  | 60% | 30% | 20% | 50% | 40% | 20% | 50% | 50% | 20%
6 | CNC(=O)c1c[n+](CCC(=O)O)nc2ccccc12 [Compound A14] |  |  |  |  |  |  |  |  |  | 80% | 100% | 30% | 90% | 100% | 60% | 80% | 70% | 50%
7 | CS(=O)(=O)NC(=O)C[n+]1ccc2ccccc2n1 [Compound A15, 2-cinnolin-2-ium-2-yl-N-methylsulfonyl-acetamide bromide] | 60% | 80% | 60% | 80% | 90% | 90% | 70% | 40% | 80% |  |  |  |  |  |  |  |  | 
